Results: patent publication US9695155B2, “Herbicidal substituted pyrimidinyloxy benzene compounds” (E. I. DU PONT DE NEMOURS AND COMPANY, priority 2013, dated 2017)

Legend:
[1] = tested on: morningglory; experiment: Test C postemergence; type: in vivo, Ipomoea coccinea; conditions: Ipomoea, post-emergence
Method in brief: (§1)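 Seeds were sown in loam–sand blend and sprayed preemergence, while plants at 1- to 4-leaf stage (2–18 cm) in peat-based medium received postemergence sprays; test chemicals were formulated in a non-phytotoxic solvent with surfactant. After 13–15 days in a greenhouse, injury was rated visually against controls, 0 (no effect) to 100 (complete control).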

[2] = tested on: barnyardgrass; experiment: Test C preemergence; type: in vivo, Echinochloa crus-galli; conditions: Echinochloa crus-galli, pre-emergence
Method in brief: as §1

[3] = tested on: velvetleaf; experiment: Test A postemergence; type: in vivo, Abutilon theophrasti; conditions: Abutilon theophrasti, post-emergence, 240 h
Method in brief: (§2)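 Injury scores run from 0, no effect, to 100, complete control, judged by eye against untreated plants roughly 10 days after treatment. Chemicals carried a surfactant in a non-phytotoxic solvent and went onto loam–sand soil preemergence or onto one- to two-leaf seedlings postemergence.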

[4] = tested on: barnyardgrass; experiment: Test B flooded paddy test; type: in vivo, Echinochloa crus-galli; conditions: Echinochloa crus-galli; Flood, 250 g ai/ha; 0 to 100 scale where 0 is no effect and 100 is complete control; read-out: Plant response rating, Barnyardgrass
Method in brief: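 Plants at 2-leaf stage; pots flooded to 3 cm above soil and compound applied directly into paddy water, depth held throughout. After 13 to 15 days in greenhouse, visual rating versus controls on 0 (no effect) to 100 (complete control) scale.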

[5] = tested on: lambsquarters; experiment: Test C preemergence; type: in vivo, Chenopodium album; conditions: Chenopodium album, pre-emergence
Method in brief: as §1

[6] = tested on: pigweed; experiment: Test A postemergence; type: in vivo, Amaranthus retroflexus; conditions: Amaranthus retroflexus, post-emergence
Method in brief: as §2

[7] = tested on: Italian ryegrass; experiment: Test C postemergence; type: in vivo, Lolium multiflorum; conditions: Lolium multiflorum, post-emergence
Method in brief: as §1

[8] = tested on: corn; experiment: Test A preemergence; type: in vivo, Zea mays; conditions: Zea mays, pre-emergence, 240 h
Method in brief: as §2

[9] = tested on: morningglory; experiment: Test A preemergence; type: in vivo, Ipomoea spp.
Method in brief: as §2

[10] = tested on: wheat; experiment: Test A postemergence; type: in vivo, Triticum aestivum; conditions: Triticum aestivum, post-emergence, 240 h
Method in brief: as §2

[11] = tested on: wheat, winter; experiment: Test C preemergence; type: in vivo, Triticum aestivum; conditions: Triticum aestivum, pre-emergence
Method in brief: as §1

[12] = tested on: velvetleaf; experiment: Test A preemergence; type: in vivo, Abutilon theophrasti
Method in brief: as §2

[13] = tested on: giant foxtail; experiment: Test A preemergence; type: in vivo, Setaria faberii; conditions: Setaria faberi, pre-emergence, 240 h
Method in brief: as §2

[14] = tested on: kochia; experiment: Test C postemergence; type: in vivo, Kochia scoparia; conditions: Bassia scoparia, post-emergence
Method in brief: as §1

[15] = tested on: pigweed; experiment: Test C postemergence; type: in vivo, Amaranthus retroflexus; conditions: Amaranthus retroflexus, post-emergence
Method in brief: as §1

[16] = tested on: large (Lg) crabgrass; experiment: Test A postemergence; type: in vivo, Digitaria sanguinalis; conditions: Digitaria sanguinalis, post-emergence, 240 h
Method in brief: as §2

[17] = 125 g ai/ha, 0 to 100 scale where 0 is no effect and 100 is complete control

N#Cc1cccc(Oc2ncc(Cl)cn2)c1-n1cc(C(F)(F)F)cn1 [Compound 58, 3-[(5-chloro-2-pyrimidinyl)oxy]-2-[4-(trifluoromethyl)-1H-pyrazol-1-yl]benzonitrile] was tested, and the pest or weed control at 125 g/ha ([1]; 125 g ai/ha, postemergence, read-out: Plant response rating (0 to 100), Morningglory) was 98%, the pest or weed control at 250 g/ha ([1]; 250 g ai/ha, postemergence, read-out: Plant response rating (0 to 100), Morningglory) was 98% and the pest or weed control at 31 g/ha ([1]; Postemergence, 31 g ai/ha, scale 0 to 100 (0 no effect, 100 complete control), 13 to 15 days, read-out: Plant response rating, Morningglory) was 80%. The pest or weed control at 62 g/ha ([1]; Postemergence, 62 g ai/ha, scale 0 to 100 (0 no effect, 100 complete control), read-out: Plant response rating, Morningglory) was 95%, the pest or weed control at 62 g/ha ([2]; 62 g ai/ha, preemergence, scale 0 (no effect) to 100 (complete control), read-out: Barnyardgrass plant response rating) was 100% and the pest or weed control at 125 g/ha ([2]; 125 g ai/ha, preemergence, scale 0 (no effect) to 100 (complete control), read-out: Barnyardgrass plant response rating) was 100%. The pest or weed control at 250 g/ha ([2]; 250 g ai/ha, preemergence, scale 0 (no effect) to 100 (complete control), read-out: Barnyardgrass plant response rating) was 100%, the pest or weed control at 31 g/ha ([2]; Preemergence, 31 g ai/ha, scale 0 to 100, 0 no effect, 100 complete control, read-out: Plant response rating, Barnyardgrass) was 98% and the pest or weed control at 125 g/ha ([3]; 125 g ai/ha, 0 to 100 scale where 0 is no effect and 100 is complete control, read-out: Plant response rating, Velvetleaf) was 100%. For the same compound, the pest or weed control at 500 g/ha ([3]; 500 g ai/ha, 0 to 100 scale, 0 no effect, 100 complete control, read-out: Plant response rating Velvetleaf) was 100%, the pest or weed control at 250 g/ha [4] was 80% and the pest or weed control at 62 g/ha ([5]; 62 g ai/ha, preemergence, scale 0 (no effect) to 100 (complete control), read-out: Lambsquarters plant response rating) was 100%. For the same compound, the pest or weed control at 125 g/ha ([5]; 125 g ai/ha, preemergence, scale 0 (no effect) to 100 (complete control), read-out: Lambsquarters plant response rating) was 100%, the pest or weed control at 250 g/ha ([5]; 250 g ai/ha, preemergence, scale 0 (no effect) to 100 (complete control), read-out: Lambsquarters plant response rating) was 100% and the pest or weed control at 31 g/ha ([5]; Preemergence, 31 g ai/ha, scale 0 to 100, 0 no effect, 100 complete control, read-out: Plant response rating, Lambsquarters) was 100%. It also gave a pest or weed control at 125 g/ha ([6]; 125 g ai/ha, 0 to 100 scale where 0 is no effect and 100 is complete control, read-out: Plant response rating, Pigweed) of 100%, a pest or weed control at 500 g/ha ([6]; 240 h, 500 g ai/ha, 0 to 100 scale, 0 no effect, 100 complete control, read-out: Plant response rating Pigweed) of 100% and a pest or weed control at 125 g/ha ([7]; 125 g ai/ha, postemergence, read-out: Plant response rating (0 to 100), Ryegrass, Italian) of 10%. For the same compound, the pest or weed control at 250 g/ha ([7]; 250 g ai/ha, postemergence, read-out: Plant response rating (0 to 100), Ryegrass, Italian) was 35%, the pest or weed control at 31 g/ha ([7]; Postemergence, 31 g ai/ha, scale 0 to 100 (0 no effect, 100 complete control), 13 to 15 days, read-out: Plant response rating, Ryegrass, Italian) was 5% and the pest or weed control at 62 g/ha ([7]; Postemergence, 62 g ai/ha, scale 0 to 100 (0 no effect, 100 complete control), read-out: Plant response rating, Ryegrass, Italian) was 5%. The Corn plant response rating (crop injury, 0 = no effect, 100 = complete kill) at 125 g/ha [8, 17] was 40%, the plant injury at 500 g/ha ([8]; 500 g ai/ha, 0 to 100 scale, 0 no effect, 100 complete control, approx. 10 days, read-out: Corn plant response rating) was 70% and the “Plant response rating, Morningglory” value [9, 17] was 100. The pest or weed control at 500 g/ha ([9]; Ipomoea, pre-emergence, 240 h, 500 g ai/ha, 0 to 100 scale, 0 no effect, 100 complete control, approx. 10 days, read-out: Morningglory plant response rating) was 100%, the plant injury at 125 g/ha ([10]; 125 g ai/ha, 0 to 100 scale where 0 is no effect and 100 is complete control, read-out: Plant response rating, Wheat) was 90% and the plant injury at 500 g/ha ([10]; 500 g ai/ha, 0 to 100 scale, 0 no effect, 100 complete control, read-out: Plant response rating Wheat) was 100%. For the same compound, the plant injury at 62 g/ha ([11]; 62 g ai/ha, preemergence, scale 0 (no effect) to 100 (complete control), read-out: Wheat plant response rating) was 80%, the plant injury at 125 g/ha ([11]; 125 g ai/ha, preemergence, scale 0 (no effect) to 100 (complete control), read-out: Wheat plant response rating) was 80% and the plant injury at 250 g/ha ([11]; 250 g ai/ha, preemergence, scale 0 (no effect) to 100 (complete control), read-out: Wheat plant response rating) was 90%. The plant injury at 31 g/ha ([11]; Preemergence, 31 g ai/ha, scale 0 to 100, 0 no effect, 100 complete control, read-out: Plant response rating, Wheat) was 45%, the “Plant response rating, Velvetleaf” value [12, 17] was 90 and the pest or weed control at 500 g/ha ([12]; Abutilon theophrasti, pre-emergence, 240 h, 500 g ai/ha, 0 to 100 scale, 0 no effect, 100 complete control, approx. 10 days, read-out: Velvetleaf plant response rating) was 100%. The pest or weed control at 125 g/ha ([13]; 125 g ai/ha, 0 to 100 scale where 0 is no effect and 100 is complete control, read-out: Plant response rating, Foxtail, Giant) was 100%, the pest or weed control at 500 g/ha ([13]; 500 g ai/ha, 0 to 100 scale, 0 no effect, 100 complete control, approx. 10 days, read-out: Foxtail, Giant plant response rating) was 100% and the pest or weed control at 125 g/ha ([14]; 125 g ai/ha, postemergence, read-out: Plant response rating (0 to 100), Kochia) was 100%. For the same compound, the pest or weed control at 250 g/ha ([14]; 250 g ai/ha, postemergence, read-out: Plant response rating (0 to 100), Kochia) was 100%, the pest or weed control at 31 g/ha ([14]; Postemergence, 31 g ai/ha, scale 0 to 100 (0 no effect, 100 complete control), 13 to 15 days, read-out: Plant response rating, Kochia) was 95% and the pest or weed control at 62 g/ha ([14]; Postemergence, 62 g ai/ha, scale 0 to 100 (0 no effect, 100 complete control), read-out: Plant response rating, Kochia) was 95%. It also gave a pest or weed control at 125 g/ha ([15]; 125 g ai/ha, postemergence, read-out: Plant response rating (0 to 100), Pigweed) of 98%, a pest or weed control at 250 g/ha ([15]; 250 g ai/ha, postemergence, read-out: Plant response rating (0 to 100), Pigweed) of 100% and a pest or weed control at 31 g/ha ([15]; Postemergence, 31 g ai/ha, scale 0 to 100 (0 no effect, 100 complete control), 13 to 15 days, read-out: Plant response rating, Pigweed) of 90%. The pest or weed control at 62 g/ha ([15]; Postemergence, 62 g ai/ha, scale 0 to 100 (0 no effect, 100 complete control), read-out: Plant response rating, Pigweed) was 95%, the pest or weed control at 125 g/ha ([16]; 125 g ai/ha, 0 to 100 scale where 0 is no effect and 100 is complete control, read-out: Plant response rating, Crabgrass, Large) was 100% and the pest or weed control at 500 g/ha ([16]; 500 g ai/ha, 0 to 100 scale, 0 no effect, 100 complete control, read-out: Plant response rating Crabgrass, Large) was 100%.
